# Results: US20080003215A1, “Use of pre-dissolved pristinamycin-type and polyether ionophore type antimicrobial agents in the production of ethanol” (priority 2006, published 2008)
# Tested on: L. plantarum
# Assay: Development of resistance test (10 week duration)
# Format: cell-based
# Settings: 10 week duration of the test
# Text: One very effective control program involves the introduction of pristinamycin-type antimicrobial agents, and particularly virginiamycin, to the process. […] Usually, the “waste” byproduct, known as “Dried Distillers Grains with Solubles (DDGS), is sold as animal feed, going 45% to dairy, 35% to beef, 15% to swine, and 5% to poultry industries. This is an important factor in the profitability of an ethanol production process, and the total amount of this byproduct produced per year is on the order of 3.5 million metric tons per year. The presence of residual antimicrobial agents in this material can adversely affect the value of this byproduct, as small residual amounts of antimicrobial agents in feed will promote the development of agent-resistant microorganisms. We have tested DDGS samples from 8 major ethanol producers using virginiamycin to control microorganisms and found no detectable amount of virginiamycin in the DDGS (<1 ppm via the validated Eurofins analysis and <1 ppb via an unvalidated experimental analytical procedure). […] Generally, however, the virginiamycin in mash is destroyed by drying so virginiamycin must be re-added to the feed if so desired. Other effective control agents include polyether ionophore-type antimicrobial agents, which provide many of the benefits obtained with pristinamycin-type antimicrobial agents. […]
substance,measurement,value
virginiamycin,Time until L. plantarum developed resistance,no development of resistance
